In publication PMC12562681, “Targeting a Tau Kinase Cdk5, Cyclin-Dependent Kinase: A Blood-Based Diagnostic Marker and Therapeutic Earmark for Alzheimer’s Disease” (Biomolecules, 2025):
Read-outs that look alike come from different tables or passages of the source. Peptide text beside a SMILES is read from it.

Legend:
[1] = system: Cdk5; test: Cdk5 expression by Western blot in Aβ25–35-treated SH-SY5Y cells; assay type: cell-based; settings: aggregated Aβ25–35, SH-SY5Y
Procedure: (§1) The concentration of total protein in cell lysate was measured using the bicinchoninic acid (BCA) assay. Samples were prepared using the 6× protein loading dye and incubated at 95 °C for 15 min. Equal concentrations of cell lysate (50 µg/lane) were fractionated by 10% SDS-PAGE and transferred to PVDF membrane. The membrane was blocked with 5% NFM for 2 h and then probed with their respective primary antibodies: Cdk5 (1:400) and Mcl1 (1:1000), mouse IgG anti-β-amyloid (1:200) (Sc28365), mouse IgG anti-Tau (Tau-46) (1:200) (Santa Cruz Biotechnology Inc., Dallas, TX, USA, Sc32274), rabbit IgG anti-phospho-Tau (Thr181) (1:350) (Cell Signaling Technology, Inc., Danvers, MA, USA, DAF4G), and rabbit antibody IgG anti-β-actin (1:1000) (Cell Signaling Technology, Inc., Danvers, MA, USA). The membranes were incubated with the secondary anti-rabbit and anti-mouse (cat. no. Sc2004, Sc2005) HRP-conjugated antibody (1:4000) at room temperature for 1 h.

[2] = system: Cdk5 mRNA; test: Cdk5 mRNA by RT-PCR in Aβ25–35-treated SH-SY5Y cells; assay type: cell-based; settings: aggregated Aβ25–35 alone; δ-δ CT, GAPDH; triplicate
Text: [36]; Mcl1 forward primer-[NT] and reverse primer-[…] forward primer-[NT] and reverse primer-[NT].

[3] = system: Tau; test: Tau expression by Western blot in Aβ25–35-treated SH-SY5Y cells; assay type: cell-based; settings: aggregated Aβ25–35 alone
Procedure: as §1

[4] = system: Aβ-amyloid; test: Aβ-amyloid expression by Western blot in Aβ25–35-treated SH-SY5Y cells; assay type: cell-based; settings: aggregated Aβ25–35 alone
Procedure: as §1

[5] = system: phospho-Tau (Thr181); test: p-Tau expression by Western blot in Aβ25–35-treated SH-SY5Y cells; assay type: cell-based; settings: aggregated Aβ25–35 alone
Procedure: as §1

[6] = target: T1, Cdk5 (Homo sapiens, UniProt Q00535); test: Binding study of peptide by SPR (Ni-NTA chip, immobilized recombinant Cdk5); settings: recombinant Cdk5 on Ni-NTA sensor chip, peptide 0.4, 0.6 and 1 µM, BIA evaluation 3.0, read-out: dissociation constant (KD)
T1 construct: host or cells: E. coli BL21
T1 sequence (Q00535 whole entry): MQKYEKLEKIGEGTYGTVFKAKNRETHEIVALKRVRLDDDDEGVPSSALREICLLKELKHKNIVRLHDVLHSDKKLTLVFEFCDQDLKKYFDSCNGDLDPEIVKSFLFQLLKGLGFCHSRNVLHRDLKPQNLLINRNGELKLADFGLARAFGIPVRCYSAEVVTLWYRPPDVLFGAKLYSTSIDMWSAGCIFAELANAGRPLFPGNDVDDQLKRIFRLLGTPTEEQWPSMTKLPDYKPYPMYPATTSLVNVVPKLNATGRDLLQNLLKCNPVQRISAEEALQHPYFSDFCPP
Procedure: Different concentrations of purified recombinant human Cdk5 and Mcl1 proteins were passed over the respective flow cells, and corresponding response units (RU) were noted. The standard curve was prepared by plotting different concentrations of pure proteins versus the corresponding RU (Figure S1). Serum samples were diluted (1:79) with HBS-EP buffer and passed over the respective flow cell. The RU for each sample was noted, and the concentration of Cdk5 and Mcl1 in the serum sample was derived from their respective standard curves.
The recombinant Cdk5 protein was immobilized on the Ni-NTA sensor chip by passing NiCl2 solution and the protein. Different concentrations of peptide YCWS (0.4 µM, 0.6 µM, and 1 µM) were passed over it, and changes in RU were noted. The association constant (KA) and dissociation constant (KD) values were calculated using the BIA evaluation 3.0 software.

[7] = system: SH-SY5Y cells; assay type: cell-based; settings: triplicate
Text: (§2) SH-SY5Y and HEK 293 cells were purchased from NCCS, Pune, India, and were maintained in Ham’s F12 (cat. no. 21700075) and Dulbecco’s Modified Eagle Medium (DMEM, cat. no. 12800017) nutrient media (Gibco, Waltham, MA, USA), respectively, supplemented with 10% (v/v) Fetal Bovine Serum (FBS, cat. no. 10270106) and 1% antibiotic–antimycotic solution (cat. no. CC4003010L, CELL clone, New Delhi, India). The SH-SY5Y cells used in the experiment were of passage number 42–46. Cells were maintained as a monolayer culture at 37 °C with 5% CO2 and 95% relative humidity. Potential contamination in all cells was assessed through STR profiling (DNA Forensic Laboratory Private Limited, New Delhi, India).
Aggregated Aβ25–35 was employed to induce neurotoxicity in SH-SY5Y cells due to its ability to replicate the physiological and biological characteristics of Aβ-amyloid, known to mediate neurotoxic effects and contribute to neuronal cell damage. The effect of peptide on neurotoxicity caused by aggregated Aβ25–35 was assessed via MTT assay. Cells were seeded in 96-well plates at a density of 1 × 10^4 cells per 100 μL per well. Cells were cultured for 24 h and then treated with 20 µM retinoic acid for differentiation. The culture medium was routinely replaced every alternate day for a period of seven days. A stock solution of 20 mM Aβ25–35 was prepared by dissolving 2.12 mg of synthesized Aβ25–35 in 100 µL of 1× PBS and allowed to aggregate at 37 °C for 7 days. Cells were treated with 20 µM aggregated Aβ25–35, along with different concentrations of the peptide YCWS (2 µM, 5 µM, 10 µM, 15 µM, and 20 µM) for 24 h, 48 h, and 72 h. After completion of the treatment duration, cell viability was determined using the MTT assay as described above.

[8] = system: SHSY-5Y cells; test: Cytotoxicity of peptide in SHSY-5Y cells; assay type: cell-based; settings: discussion statement, concentration and time not given
[9] = system: HEK-293 cells; test: Cell cytotoxicity assay in HEK-293 cells (MTT); assay type: cell-based; settings: 24 h, 48 h and 72 h, up to 50 µM, triplicate
Text: as §2
The peptide’s effect was initially assessed using the normal HEK 293 cell line, and the cell viability was determined by the 3-(4,5-dimethylthiazol-2-yl)-2,5-diphenyltetrazolium bromide (MTT) (cat. no. T0793) reduction assay. Cells were seeded in 96-well plates at a density of 5 × 10^3 cells per 100 μL per well. Cells were cultured for 24 h and then treated with different concentrations of peptide, i.e., 10 µM, 20 µM, and 50 µM, for different time intervals (24 h, 48 h, and 72 h). At the end of treatment, 10 μL MTT (5 mg/mL) was added in each well and incubated for 4 h at 37 °C. […] The absorbance value at 572 nm was measured using a microplate reader. […]

| Structure (SMILES) | Cdk5 protein expression [1] | Cdk5 mRNA expression, fold vs control group [2] | tau expression [3] | Aβ-amyloid expression [4] | p-Tau expression [5] | Kd [6] | cell viability, rescue ([7]; YCWS 2 µM + 20 µM aggregated Aβ25–35, MTT, time of value not stated (24, 48, 72 h tested)) | cell viability, rescue ([7]; YCWS 5 µM + 20 µM aggregated Aβ25–35, MTT, time of value not stated (24, 48, 72 h tested)) | cell viability, rescue ([7]; YCWS 10 µM + 20 µM aggregated Aβ25–35, MTT, time of value not stated (24, 48, 72 h tested)) | cell viability, rescue ([7]; YCWS 15 µM + 20 µM aggregated Aβ25–35, MTT, time of value not stated (24, 48, 72 h tested)) | cell viability, rescue ([7]; YCWS 20 µM ("up to") + 20 µM aggregated Aβ25–35, MTT, p < 0.001 vs Aβ (Mann–Whitney), time of value not stated) | cytotoxicity, SHSY-5Y cells [8] | cytotoxicity, HEK-293 cells [9] |
| --- | --- | --- | --- | --- | --- | --- | --- | --- | --- | --- | --- | --- | --- |
| CC[C@H](C)[C@H](NC(=O)[C@H](C)NC(=O)CNC(=O)[C@H](CCCCN)NC(=O)[C@H](CC(N)=O)NC(=O)[C@H](CO)NC(=O)CN)C(=O)N[C@H](C(=O)NCC(=O)N[C@@H](CC(C)C)C(=O)N[C@@H](CCSC)C(=O)O)[C@@H](C)CC [Aβ25–35] (H-GSNKGAIIGLM-OH; N-terminus and C-terminus assumed) | increased the expression of Cdk5 | 1.85 fold | increased | increased | increased |  |  |  |  |  |  |  |  |
| N[C@@H](Cc1ccc(O)cc1)C(=O)N[C@@H](CS)C(=O)N[C@@H](Cc1c[nH]c2ccccc12)C(=O)N[C@@H](CO)C(=O)O [YCWS] (H-YCWS-OH) |  |  |  |  |  | 3.94 nM | 87.28% | 91.47% | 92.20% | 98.27% | 98.55% | non-toxic | nontoxic |
